Laboratory results reported in publication PMC3953730 (FEBS Open Bio, 2014).

Target: β-secretase 1 (BACE1) (Homo sapiens, UniProt P56817)
Assay: in vitro fluorogenic peptide cleavage assay, dose response
Assay type: biochemical

Chain of β-secretase 1 (BACE1) (P56817 46-457): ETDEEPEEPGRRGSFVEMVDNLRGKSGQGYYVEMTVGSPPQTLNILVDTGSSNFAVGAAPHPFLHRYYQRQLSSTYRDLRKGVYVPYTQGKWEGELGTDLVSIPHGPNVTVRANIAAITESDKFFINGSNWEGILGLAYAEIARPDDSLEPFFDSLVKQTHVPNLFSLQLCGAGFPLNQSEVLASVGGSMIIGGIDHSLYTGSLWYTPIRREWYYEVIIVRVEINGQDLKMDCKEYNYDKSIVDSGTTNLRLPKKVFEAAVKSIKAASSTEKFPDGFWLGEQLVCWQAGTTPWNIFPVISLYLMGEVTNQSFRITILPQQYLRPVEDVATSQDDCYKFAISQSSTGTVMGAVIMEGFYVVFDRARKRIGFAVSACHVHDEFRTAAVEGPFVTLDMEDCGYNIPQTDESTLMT

**Q.** How did the IC50 turn out when `O=P(O)(O)O[C@H]1[C@H](OP(=O)(O)O)[C@@H](OP(=O)(O)O)[C@H](OP(=O)(O)O)[C@@H](OP(=O)(O)O)[C@H]1OP(=O)(O)O` [IP6, myo-inositol hexakisphosphate] was run?
**A.** Its IC50 is roughly 250 nM.
